Assay results taken from PubChem BioAssay (NCI).
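A five-concentration, 48-hour dose response in 96-well plates underlies each endpoint, interpolated linearly between surrounding concentrations. GI50: concentration for 50% inhibition of growth. TGI is the concentration that stops growth completely.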

What was measured:
Assay in all cases: NCI tumour cell line growth inhibition, 48 h
P388 leukemia = system: P388 leukemia
SN12K1 renal = system: SN12K1 renal
P388/ADR leukemia = system: P388/ADR leukemia

Row | SMILES | TGI (P388 leukemia) [µM] | GI50 (SN12K1 renal) [nM] | TGI (SN12K1 renal) [µM] | TGI (P388/ADR leukemia) [µM]
1 | CC1OC(O[C@@H]2C=C3CC[C@@H]4[C@H](CC[C@]5(C)[C@@H](c6ccc(=O)oc6)CC[C@]45O)[C@@]3(C)CC2)C(O)C(O)C1O (some centres not stated) | > 74.8 | 0.941 | 0.003 | 159
2 | C=C1C(C)C2C(Cc3ccccc3)NC(=O)C23C(OC(C)=O)C=CC(C)(O)C(=O)C(C)C/C=C/C3C1O (configuration not stated) | 51.7 |  | 58.3 | 90.3
